Assays:
[1] = target: T1, Dual specificity protein kinase TTK (Homo sapiens, UniProt P33981); assay: Inhibition of MPS1 in human taxol-arrested U2OS cells assessed as effect on histone H3 phosphorylation at ser10 residue incubated for 2 hrs by arrayscan analysis; type: cell-based
T1 sequence (P33981 whole entry): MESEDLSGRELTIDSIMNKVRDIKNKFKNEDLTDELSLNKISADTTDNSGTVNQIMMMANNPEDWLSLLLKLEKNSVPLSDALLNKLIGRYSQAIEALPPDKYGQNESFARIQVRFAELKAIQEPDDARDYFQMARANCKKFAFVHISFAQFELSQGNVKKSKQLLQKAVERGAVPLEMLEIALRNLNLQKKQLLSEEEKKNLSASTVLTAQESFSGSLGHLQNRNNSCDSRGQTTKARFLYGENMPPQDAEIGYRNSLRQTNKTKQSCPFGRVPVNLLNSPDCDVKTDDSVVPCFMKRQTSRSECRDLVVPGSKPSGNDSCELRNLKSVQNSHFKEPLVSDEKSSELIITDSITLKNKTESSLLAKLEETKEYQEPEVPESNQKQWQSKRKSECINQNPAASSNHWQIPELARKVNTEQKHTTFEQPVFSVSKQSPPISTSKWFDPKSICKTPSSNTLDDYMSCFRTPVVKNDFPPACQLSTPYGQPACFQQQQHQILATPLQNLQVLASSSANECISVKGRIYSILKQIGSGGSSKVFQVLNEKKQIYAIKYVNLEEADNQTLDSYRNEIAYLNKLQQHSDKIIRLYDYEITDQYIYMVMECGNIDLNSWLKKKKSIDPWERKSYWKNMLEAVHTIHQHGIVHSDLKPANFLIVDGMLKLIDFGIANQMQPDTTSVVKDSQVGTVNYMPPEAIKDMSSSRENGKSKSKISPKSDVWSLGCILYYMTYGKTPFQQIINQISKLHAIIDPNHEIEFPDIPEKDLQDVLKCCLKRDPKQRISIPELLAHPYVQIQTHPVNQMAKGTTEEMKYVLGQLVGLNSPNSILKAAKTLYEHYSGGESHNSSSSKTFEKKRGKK

Casein kinase 2 = Casein kinase 2 (Homo sapiens, UniProt P67870+P68400+P19784+Q8NEV1); assay: Inhibition of recombinant CK2 (unknown origin); type: protein assay
[2] = target: Inhibitor of nuclear factor kappa-B kinase subunit beta (Homo sapiens, UniProt O14920); assay: Inhibition of recombinant IKK2 (unknown origin)
[3] = Inhibition of recombinant AUR2 (unknown origin); set-up: species or system Homo sapiens
Activated CDC42 kinase 1 = Activated CDC42 kinase 1 (Homo sapiens, UniProt Q07912); assay: Inhibition of recombinant ACK1 (unknown origin)
[4] = target: CDC7/DBF4 (Cell division cycle 7-related protein kinase/Activator of S phase kinase) (Homo sapiens, UniProt O00311); assay: Inhibition of recombinant CDC7/DBF4 (unknown origin); type: protein-complex assay
CDC7/DBF4 (Cell division cycle 7-related protein kinase/Activator of S phase kinase), sequence (Q9UBU7 whole entry): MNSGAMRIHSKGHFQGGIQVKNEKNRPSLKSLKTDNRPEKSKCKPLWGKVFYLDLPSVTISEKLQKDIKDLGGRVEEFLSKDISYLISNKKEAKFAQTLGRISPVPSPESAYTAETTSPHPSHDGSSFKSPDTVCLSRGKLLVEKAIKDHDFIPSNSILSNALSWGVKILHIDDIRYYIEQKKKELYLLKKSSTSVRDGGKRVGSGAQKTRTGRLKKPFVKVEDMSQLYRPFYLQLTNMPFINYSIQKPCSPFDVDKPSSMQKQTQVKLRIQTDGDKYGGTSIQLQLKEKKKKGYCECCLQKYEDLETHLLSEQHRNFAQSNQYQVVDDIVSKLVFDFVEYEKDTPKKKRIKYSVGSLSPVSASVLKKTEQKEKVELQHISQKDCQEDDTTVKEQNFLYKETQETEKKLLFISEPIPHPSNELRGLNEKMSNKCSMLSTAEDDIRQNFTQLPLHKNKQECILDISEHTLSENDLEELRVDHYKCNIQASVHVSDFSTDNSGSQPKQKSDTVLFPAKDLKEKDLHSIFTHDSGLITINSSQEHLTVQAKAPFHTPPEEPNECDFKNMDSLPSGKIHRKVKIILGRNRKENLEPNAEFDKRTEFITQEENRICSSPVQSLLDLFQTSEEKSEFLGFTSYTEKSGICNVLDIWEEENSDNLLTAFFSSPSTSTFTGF
CDC7/DBF4 (Cell division cycle 7-related protein kinase/Activator of S phase kinase), sequence (O00311 whole entry): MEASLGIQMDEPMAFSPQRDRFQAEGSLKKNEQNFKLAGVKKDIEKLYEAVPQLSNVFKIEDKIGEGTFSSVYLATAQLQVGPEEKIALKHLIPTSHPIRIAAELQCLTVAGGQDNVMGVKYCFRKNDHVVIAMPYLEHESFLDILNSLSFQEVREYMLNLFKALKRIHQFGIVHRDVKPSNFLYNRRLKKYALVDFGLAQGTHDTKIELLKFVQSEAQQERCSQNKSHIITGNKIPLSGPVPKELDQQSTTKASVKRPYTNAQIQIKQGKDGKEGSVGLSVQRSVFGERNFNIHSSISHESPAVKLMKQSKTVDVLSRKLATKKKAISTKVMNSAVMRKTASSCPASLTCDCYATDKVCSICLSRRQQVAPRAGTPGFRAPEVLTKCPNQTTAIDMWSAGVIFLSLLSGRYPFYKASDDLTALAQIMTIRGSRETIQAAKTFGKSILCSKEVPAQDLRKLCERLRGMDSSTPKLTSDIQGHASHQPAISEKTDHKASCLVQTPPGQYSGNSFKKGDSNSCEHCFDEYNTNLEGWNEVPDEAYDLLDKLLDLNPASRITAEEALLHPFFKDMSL

[5] = target: Tyrosine-protein kinase Lyn (Homo sapiens, UniProt P07948); assay: Inhibition of recombinant LYN (unknown origin)
[6] = target: Receptor-type tyrosine-protein kinase FLT3 (Homo sapiens, UniProt P36888); assay: Inhibition of recombinant FLT3 (unknown origin)
[7] = Inhibition of recombinant SULU1 (unknown origin); set-up: species or system Homo sapiens
[8] = target: Maternal embryonic leucine zipper kinase (Homo sapiens, UniProt Q14680); assay: Inhibition of recombinant MELK (unknown origin)
[9] = target: Tyrosine-protein kinase ZAP-70 (Homo sapiens, UniProt P43403); assay: Inhibition of recombinant ZAP70 (unknown origin)
[10] = target: Vascular endothelial growth factor receptor 2 (Homo sapiens, UniProt P35968); assay: Inhibition of recombinant VEGFR2 (unknown origin)
Insulin receptor = Insulin receptor (Homo sapiens, UniProt P06213); assay: Inhibition of recombinant IR (unknown origin)
[11] = Inhibition of recombinant PDGFR (unknown origin); set-up: species or system Homo sapiens
[12] = target: Tyrosine-protein kinase Lck (Homo sapiens, UniProt P06239); assay: Inhibition of recombinant LCK (unknown origin)
[13] = target: Eukaryotic translation initiation factor 2-alpha kinase 3 (Homo sapiens, UniProt Q9NZJ5); assay: Inhibition of recombinant PERK (unknown origin)
[14] = target: Eukaryotic elongation factor 2 kinase (Homo sapiens, UniProt O00418); assay: Inhibition of recombinant EEF2K (unknown origin)
[15] = target: Non-receptor tyrosine-protein kinase TYK2 (Homo sapiens, UniProt P29597); assay: Inhibition of recombinant TYK 2 (unknown origin)
[16] = target: Glycogen synthase kinase-3 beta (Homo sapiens, UniProt P49841); assay: Inhibition of recombinant GSK3beta (unknown origin)
[17] = Inhibition of recombinant AUR1 (unknown origin); set-up: species or system Homo sapiens
[18] = target: Serine/threonine-protein kinase 26 (Homo sapiens, UniProt Q9P289); assay: Inhibition of recombinant MST4 (unknown origin)
[19] = target: Fibroblast growth factor receptor 1 (Homo sapiens, UniProt P11362); assay: Inhibition of recombinant FGFR1 (unknown origin)
[20] = target: Serine/threonine-protein kinase Nek6 (Homo sapiens, UniProt Q9HC98); assay: Inhibition of recombinant NEK6 (unknown origin)
[21] = target: T1, Dual specificity protein kinase TTK; assay: Inhibition of recombinant MPS1 (unknown origin)
[22] = target: Mast/stem cell growth factor receptor Kit (Homo sapiens, UniProt P10721); assay: Inhibition of recombinant KIT (unknown origin)
[23] = target: Serine/threonine-protein kinase PLK1 (Homo sapiens, UniProt P53350); assay: Inhibition of recombinant PLK1 (unknown origin)
[24] = target: Serine/threonine-protein kinase NIM1 (Homo sapiens, UniProt Q8IY84); assay: Inhibition of recombinant NIM1 (unknown origin)
Serine/threonine-protein kinase NIM1, sequence (Q8IY84 whole entry): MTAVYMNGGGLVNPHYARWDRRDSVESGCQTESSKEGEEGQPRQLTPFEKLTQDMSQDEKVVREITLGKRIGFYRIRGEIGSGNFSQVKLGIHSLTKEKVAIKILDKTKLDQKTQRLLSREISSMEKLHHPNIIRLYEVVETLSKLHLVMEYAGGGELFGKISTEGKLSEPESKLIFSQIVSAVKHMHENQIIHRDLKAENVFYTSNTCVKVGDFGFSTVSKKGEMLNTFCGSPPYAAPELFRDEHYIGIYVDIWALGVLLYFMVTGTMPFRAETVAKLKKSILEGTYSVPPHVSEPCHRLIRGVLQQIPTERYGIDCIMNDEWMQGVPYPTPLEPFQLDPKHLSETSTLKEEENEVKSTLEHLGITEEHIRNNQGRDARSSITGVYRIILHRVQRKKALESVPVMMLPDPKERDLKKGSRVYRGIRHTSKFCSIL

[25] = target: Protein-tyrosine kinase 6 (Homo sapiens, UniProt Q13882); assay: Inhibition of recombinant BRK (unknown origin)
Protein-tyrosine kinase 6, sequence (Q13882 whole entry): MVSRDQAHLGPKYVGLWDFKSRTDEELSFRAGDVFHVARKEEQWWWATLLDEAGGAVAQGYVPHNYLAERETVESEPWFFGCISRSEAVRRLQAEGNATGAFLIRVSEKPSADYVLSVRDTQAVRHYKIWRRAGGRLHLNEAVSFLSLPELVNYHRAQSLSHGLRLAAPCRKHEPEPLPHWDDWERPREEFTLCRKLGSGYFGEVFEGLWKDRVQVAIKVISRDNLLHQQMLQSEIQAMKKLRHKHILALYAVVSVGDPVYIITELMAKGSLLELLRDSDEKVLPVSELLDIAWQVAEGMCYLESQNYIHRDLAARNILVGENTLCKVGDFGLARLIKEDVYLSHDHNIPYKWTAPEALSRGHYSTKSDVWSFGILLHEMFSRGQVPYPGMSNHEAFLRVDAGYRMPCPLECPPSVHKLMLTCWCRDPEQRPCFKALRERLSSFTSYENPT

[26] = target: Serine/threonine-protein kinase haspin (Homo sapiens, UniProt Q8TF76); assay: Inhibition of recombinant Haspin (unknown origin)
[27] = target: Serine/threonine-protein kinase Chk1 (Homo sapiens, UniProt O14757); assay: Inhibition of recombinant CHK1 (unknown origin)
Focal adhesion kinase 1 = Focal adhesion kinase 1 (Homo sapiens, UniProt Q05397); assay: Inhibition of recombinant FAK (unknown origin)
[28] = target: High affinity nerve growth factor receptor (Homo sapiens, UniProt P04629); assay: Inhibition of recombinant TRKA (unknown origin)
High affinity nerve growth factor receptor, sequence (P04629 whole entry): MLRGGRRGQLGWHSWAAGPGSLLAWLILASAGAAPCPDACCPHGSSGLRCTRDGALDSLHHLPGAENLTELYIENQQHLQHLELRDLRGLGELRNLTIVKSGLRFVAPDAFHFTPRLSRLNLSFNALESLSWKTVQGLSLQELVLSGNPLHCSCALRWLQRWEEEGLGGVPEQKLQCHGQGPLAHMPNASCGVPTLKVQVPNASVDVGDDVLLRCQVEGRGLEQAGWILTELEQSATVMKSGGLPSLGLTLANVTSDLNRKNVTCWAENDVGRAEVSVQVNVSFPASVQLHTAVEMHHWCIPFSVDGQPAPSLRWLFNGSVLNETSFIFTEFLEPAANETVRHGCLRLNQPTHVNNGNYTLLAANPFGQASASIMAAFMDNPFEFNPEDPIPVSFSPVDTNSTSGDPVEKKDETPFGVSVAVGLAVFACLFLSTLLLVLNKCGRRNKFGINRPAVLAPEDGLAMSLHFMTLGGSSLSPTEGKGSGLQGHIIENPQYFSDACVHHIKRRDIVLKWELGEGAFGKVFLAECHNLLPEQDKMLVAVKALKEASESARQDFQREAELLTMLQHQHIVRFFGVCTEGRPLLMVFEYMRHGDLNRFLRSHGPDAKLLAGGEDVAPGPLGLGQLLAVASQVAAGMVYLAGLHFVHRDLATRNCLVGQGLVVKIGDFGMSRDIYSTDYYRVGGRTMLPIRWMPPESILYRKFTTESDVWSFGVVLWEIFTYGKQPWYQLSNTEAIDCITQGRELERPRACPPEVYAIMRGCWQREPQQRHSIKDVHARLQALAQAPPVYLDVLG

[29] = Inhibition of recombinant ABL (unknown origin); set-up: species or system Homo sapiens
[30] = target: MAP kinase-activated protein kinase 2 (Homo sapiens, UniProt P49137); assay: Inhibition of recombinant MAPKAPK2 (unknown origin)
[31] = target: Mitogen-activated protein kinase 1 (Homo sapiens, UniProt P28482); assay: Inhibition of recombinant ERK2 (unknown origin)
[32] = target: Tyrosine-protein kinase JAK1 (Homo sapiens, UniProt P23458); assay: Inhibition of recombinant JAK1 (unknown origin)
[33] = target: Tyrosine-protein kinase JAK3 (Homo sapiens, UniProt P52333); assay: Inhibition of recombinant JAK3 (unknown origin)
[34] = target: Proto-oncogene tyrosine-protein kinase receptor Ret (Homo sapiens, UniProt P07949); assay: Inhibition of recombinant RET (unknown origin)
Proto-oncogene tyrosine-protein kinase receptor Ret, sequence (P07949 whole entry): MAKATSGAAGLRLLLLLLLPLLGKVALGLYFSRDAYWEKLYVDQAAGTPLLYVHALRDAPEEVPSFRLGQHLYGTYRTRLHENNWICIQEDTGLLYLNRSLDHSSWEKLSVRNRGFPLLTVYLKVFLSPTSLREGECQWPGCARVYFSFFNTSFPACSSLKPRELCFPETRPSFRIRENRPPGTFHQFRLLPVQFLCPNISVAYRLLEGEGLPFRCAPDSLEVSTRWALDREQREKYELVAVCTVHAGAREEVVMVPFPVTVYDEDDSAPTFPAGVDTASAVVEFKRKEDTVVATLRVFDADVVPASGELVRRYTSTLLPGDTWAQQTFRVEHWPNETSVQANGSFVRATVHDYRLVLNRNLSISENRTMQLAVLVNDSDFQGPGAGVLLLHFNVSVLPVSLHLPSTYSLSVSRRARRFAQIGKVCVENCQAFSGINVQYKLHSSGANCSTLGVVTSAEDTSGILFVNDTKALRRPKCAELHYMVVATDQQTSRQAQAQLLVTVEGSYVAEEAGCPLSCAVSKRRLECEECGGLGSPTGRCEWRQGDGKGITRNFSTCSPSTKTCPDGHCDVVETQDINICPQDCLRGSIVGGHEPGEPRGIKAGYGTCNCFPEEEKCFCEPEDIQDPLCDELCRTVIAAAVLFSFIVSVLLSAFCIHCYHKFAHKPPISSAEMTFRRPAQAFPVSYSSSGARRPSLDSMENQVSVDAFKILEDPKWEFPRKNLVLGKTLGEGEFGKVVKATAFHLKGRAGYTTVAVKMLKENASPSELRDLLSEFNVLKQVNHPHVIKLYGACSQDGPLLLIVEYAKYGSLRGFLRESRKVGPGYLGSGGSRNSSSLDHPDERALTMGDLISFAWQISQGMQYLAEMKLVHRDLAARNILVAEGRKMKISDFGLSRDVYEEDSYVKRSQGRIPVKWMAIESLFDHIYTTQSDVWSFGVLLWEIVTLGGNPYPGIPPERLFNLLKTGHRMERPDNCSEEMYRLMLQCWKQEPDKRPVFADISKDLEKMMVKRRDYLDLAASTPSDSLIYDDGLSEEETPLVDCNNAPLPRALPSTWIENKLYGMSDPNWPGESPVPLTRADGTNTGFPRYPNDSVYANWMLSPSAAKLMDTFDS

[35] = target: Serine/threonine-protein kinase pim-2 (Homo sapiens, UniProt Q9P1W9); assay: Inhibition of recombinant PIM2 (unknown origin)
Serine/threonine-protein kinase pim-2, sequence (Q9P1W9 whole entry): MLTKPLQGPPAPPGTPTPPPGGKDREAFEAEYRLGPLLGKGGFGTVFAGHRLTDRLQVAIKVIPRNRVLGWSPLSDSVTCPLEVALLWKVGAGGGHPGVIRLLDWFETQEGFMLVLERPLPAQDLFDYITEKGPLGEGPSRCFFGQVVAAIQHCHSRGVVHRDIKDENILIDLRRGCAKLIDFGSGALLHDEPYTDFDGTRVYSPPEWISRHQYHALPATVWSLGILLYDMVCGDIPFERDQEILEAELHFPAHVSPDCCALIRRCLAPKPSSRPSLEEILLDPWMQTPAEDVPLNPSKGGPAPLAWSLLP

[36] = target: RAC-alpha serine/threonine-protein kinase (Homo sapiens, UniProt P31749); assay: Inhibition of recombinant AKT1 (unknown origin)
[37] = target: Serine/threonine-protein kinase pim-1 (Homo sapiens, UniProt P11309); assay: Inhibition of recombinant PIM1 (unknown origin)
[38] = target: ALK tyrosine kinase receptor (Homo sapiens, UniProt Q9UM73); assay: Inhibition of recombinant ALK (unknown origin)
[39] = target: Protein kinase C beta type (Homo sapiens, UniProt P05771); assay: Inhibition of recombinant PKCbeta (unknown origin)
[40] = target: Mitotic checkpoint serine/threonine-protein kinase BUB1 (Homo sapiens, UniProt O43683); assay: Inhibition of recombinant BUB1 (unknown origin)
[41] = target: Vascular endothelial growth factor receptor 3 (Homo sapiens, UniProt P35916); assay: Inhibition of recombinant VEGFR3 (unknown origin)
[42] = target: Serine/threonine-protein kinase PAK 4 (Homo sapiens, UniProt O96013); assay: Inhibition of recombinant PAK4 (unknown origin)
Serine/threonine-protein kinase PAK 4, sequence (O96013 whole entry): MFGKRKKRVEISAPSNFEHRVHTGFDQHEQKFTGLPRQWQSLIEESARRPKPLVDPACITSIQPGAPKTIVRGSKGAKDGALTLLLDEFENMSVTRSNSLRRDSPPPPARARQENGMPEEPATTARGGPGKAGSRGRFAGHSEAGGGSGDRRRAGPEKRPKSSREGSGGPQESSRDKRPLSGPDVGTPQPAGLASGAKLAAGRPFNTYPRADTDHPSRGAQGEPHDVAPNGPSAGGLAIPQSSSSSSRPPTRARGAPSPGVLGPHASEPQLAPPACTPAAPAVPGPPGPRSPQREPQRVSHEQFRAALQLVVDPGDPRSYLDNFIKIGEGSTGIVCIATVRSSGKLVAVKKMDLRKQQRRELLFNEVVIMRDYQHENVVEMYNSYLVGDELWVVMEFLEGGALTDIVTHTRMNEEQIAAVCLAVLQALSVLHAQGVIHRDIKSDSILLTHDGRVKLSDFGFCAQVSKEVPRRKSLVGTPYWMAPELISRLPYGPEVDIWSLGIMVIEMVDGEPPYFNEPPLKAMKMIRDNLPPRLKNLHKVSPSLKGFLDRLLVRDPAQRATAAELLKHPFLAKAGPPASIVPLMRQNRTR

An EC50 ([1]; u2os) of 1990 nM was found for `Cn1c2ccccc2c2c3c(c4c5ccccc5n(CCC#N)c4c21)CNC3=O` [GO-6976] in this work.
An IC50 (Casein kinase 2) of 650 nM, an IC50 [2] of 1020 nM and an IC50 [3] of 190 nM were found for `O=C1c2ccccc2-c2n[nH]c3cccc1c23` in this work. It also gave an IC50 (Activated CDC42 kinase 1) of 2290 nM, an IC50 [4] of 1590 nM and an IC50 [5] of over 10000 nM. It also gave an IC50 [6] of 90 nM, an IC50 [7] of over 10000 nM and an IC50 [8] of 110 nM. It also gave an IC50 [9] of over 10000 nM, an IC50 [10] of 2930 nM and an IC50 (Insulin receptor) of 4010 nM. For the same compound, the IC50 [11] was over 10000 nM, the IC50 [12] was over 10000 nM and the IC50 [13] was over 10000 nM. The IC50 [14] was over 10000 nM, the IC50 [15] was 880 nM and the IC50 [16] was over 10000 nM. For the same compound, the IC50 [17] was 60 nM, the IC50 [18] was over 10000 nM and the EC50 [1] was 8980 nM. It also gave an IC50 [19] of 2400 nM, an IC50 [20] of over 10000 nM and an IC50 [21] of 1950 nM. It also gave an IC50 [22] of 870 nM, an IC50 [23] of over 10000 nM and an IC50 [24] of over 10000 nM. It also gave an IC50 [25] of over 10000 nM, an IC50 [26] of 510 nM and an IC50 [27] of over 10000 nM. For the same compound, the IC50 (Focal adhesion kinase 1) was 3860 nM, the IC50 [28] was 70 nM and the IC50 [29] was over 10000 nM. The IC50 [30] was over 10000 nM, the IC50 [31] was over 10000 nM and the IC50 [32] was 4650 nM. It also gave an IC50 [33] of 410 nM, an IC50 [34] of 1090 nM and an IC50 [35] of 1050 nM. It also gave an IC50 [36] of over 10000 nM, an IC50 [37] of 3280 nM and an IC50 [38] of over 10000 nM. The IC50 [39] was over 10000 nM, the IC50 [40] was over 10000 nM and the IC50 [41] was 300 nM. For the same compound, the IC50 [42] was over 10000 nM.
An EC50 ([1]; u2os) of 2280 nM was found for `COc1cc2c(Nc3ccc(NC(=O)c4ccccc4)cc3)ncnc2cc1OCCCN1CCOCC1` in this work.

Source: ChEMBL document CHEMBL5705893, “Targeting the mitotic checkpoint for cancer therapy with NMS-P715, an inhibitor of MPS1 kinase” (Cancer Res, 2010)
